In brackets after ≈: the same amount, converted by molar mass. Entries after “also recorded” stand apart in the source; their conditions may differ.
How the values were obtained:
Assay type in all cases: physicochemical
[1] = Stability and hygroscopicity under ambient conditions
[2] = Stable form competition study in ACN; details: Forms I through V added to high concentration solution of amorphous Compound I in ACN, stirred overnight
Experimental: To further verify the stability of Form II, competitive crystallization was conducted by adding Forms I through V into a high concentration solution of amorphous Compound I in ACN. […] The mother liquor obtained, which was saturated in terms of Form II, was used in another test in which other forms (Forms I, III, IV and V) were added.

[3] = Seeding of Compound I solution in DIPE with Form VI; details: Compound I solution in DIPE seeded with Form VI; only Form II obtained
Experimental: In an attempt crystallize Form VI, the solution of Compound I in DIPE was seeded with Form VI. However, only Form II was obtained.

[4] = Form II stability in water at elevated temperature (slurry, XRPD)
Experimental: During formulation, Compound I may be wet granulated and dried at <50° C. A slurry of Form II in water was stirred at 48° C. (50° C. jacket) and was sampled periodically for XRPD analysis to determine Form I content.

[5] = Hydrate screening, EtOH/water system; details: ethanol/water
Source text: When the organic component used in the solvent mixture forms solvate with Compound I, potential hydrates may not show up in the slurry screen, as shown in the hydrate screening using ethanol/water mixtures (Table 4). Form IX is a new form found in this study.

[6] = Follow-up stable form screening (Form II stirred in solvents at about 22° C.); details: for 2-Week Form / 24 h Form: Form II stirred at about 22° C.; for solubility: about 22° C., Form II start
Experimental: In the follow-up stable form screening experiments, the starting materials were Form II. The solids were stirring in the solvents list below at about 22° C. in 2 ml vials.

[7] = Hydrate screening, ACN/water system
[8] = water content 10%, water activity 0.510
[9] = water content 20%, water activity 0.654

For `CC1=CC[C@H](C(=O)N(c2cc(C#CC(C)(C)C)sc2C(=O)O)[C@H]2CC[C@](O)(CO[C@H]3CCOC3)CC2)CC1` (relative stereo) [Form II, 5-(3,3-dimethylbutyn-1-yl)-3-[(cis-4-hydroxy-4-{[(3S)-tetrahydrofuran-3-yloxy]methyl}cyclohexyl){[(1R)-4-methylcyclohex-3-en-1-yl]carbonyl}amino]thiophene-2-carboxylic acid], the Stability and hygroscopicity [1] was “stable and non-hygroscopic”, the “Form detected after competitive crystallization” value [2] was “the only detected form” and the “Relative stability of forms” value [3] was “more stable than Form VI”. The “Form conversion in water” value ([4]; Form II in water at 48° C.) was “slowly converted to Form I; also recorded: converts slowly to Form I”, the “Form I content by XRPD” value ([4]; Form II slurry in water, 48° C. (50° C. jacket), 6 hour point) was “not detected” and the “Form by XRPD” value ([4]; Form II slurry in water, 48° C., after 30 hours) was “Form I became the dominant form”. The “Form at 2 weeks” value [5, 8] was “solution”, the “Form at 90 hours” value [5, 8] was “solution” and the “Form at 2 weeks” value [5, 9] was “solution”. The “Form at 90 hours” value [5, 9] was “solution”, the “Form at 90 hours” value ([5]; water content 50%, water activity 0.806) was “III + small” and the “2-Week Form” value ([6]; 2 Me-THF) was “solution”. The “24 h Form” value ([6]; 2 Me-THF) was “solution”, the solubility ([6]; 2 Me-THF, solution) was greater than 334 mg/mL and the solubility ([6]; ACN/water (50/50)) was 18 mg/mL (≈ 33.1 mM). The solubility ([6]; ACN) was 6 mg/mL (≈ 11 mM), the solubility ([6]; Acetone) was 241 mg/mL (≈ 443 mM) and the “2-Week Form” value ([6]; DCM) was “solution”. For the same compound, the “24 h Form” value ([6]; DCM) was “solution”, the solubility ([6]; DCM, solution) was greater than 274 mg/mL and the solubility ([6]; Ethyl Acetate) was 124 mg/mL (≈ 228 mM). It also gave a solubility ([6]; Heptane) of 0.05 mg/mL (≈ 0.092 mM), a solubility ([6]; Isopropyl Acetate) of 59 mg/mL (≈ 109 mM) and a solubility ([6]; MIBK) of 116 mg/mL (≈ 213 mM). The “2-Week Form” value ([6]; MeOH) was “solution”, the “24 h Form” value ([6]; MeOH) was “solution” and the solubility ([6]; MeOH, solution) was greater than 321 mg/mL. The solubility ([6]; Methyl t-butyl ether) was 108 mg/mL (≈ 199 mM), the “2-Week Form” value ([6]; THF) was “solution” and the “24 h Form” value ([6]; THF) was “solution”. For the same compound, the solubility ([6]; THF, solution) was greater than 346 mg/mL, the solubility ([6]; Toluene) was 40 mg/mL (≈ 73.6 mM) and the “24 h Form” value ([6]; Water) was “II + I”. The “Stability of Form II in tested solvents (summary of Table 2)” value ([6]; stirred at about 22° C., up to 2 weeks) was “stable in most tested solvents except for alcohols, water, and MEK”, the “Equivalent RH up to which Form II is stable” value ([7]; 22° C.) was no more than 86.3 % RH and the “Water activity up to which Form II is stable” value ([7]; 22° C.) was “up to 0.863”. For the same compound, the “Form at 2 weeks” value ([7]; water content 30%, water activity 0.896, 22° C.) was “VIII”, the “Form at 2 weeks” value ([7]; water content 32%, water activity 0.9, 22° C.) was “VIII” and the “Form at 2 weeks” value ([7]; water content 40%, water activity 0.914, 22° C.) was “VIII”. The “Form at 2 weeks” value ([7]; water content 50%, water activity 0.926, 22° C.) was “VIII”, the “Form at 24 h or 90 h” value ([7]; water content 50%, water activity 0.926, 90 h, 22° C.) was “II + small” and the “Form at 2 weeks” value ([7]; water content 60%, water activity 0.936, 22° C.) was “VIII”. The “Form at 24 h or 90 h” value ([7]; water content 60%, water activity 0.936, 90 h, 22° C.) was “VIII + small”, the “Form at 2 weeks” value ([7]; water content 70%, water activity 0.943, 22° C.) was “VIII” and the “Form at 2 weeks” value ([7]; water content 80%, water activity 0.949, 22° C.) was “II + VIII”. The “Form at 24 h or 90 h” value ([7]; water content 80.9%, water activity 0.950, 24 h, 22° C.) was “I + II” and the “Form at 24 h or 90 h” value ([7]; water content 100%, water activity 1, 24 h, 22° C.) was “I + II”.
